Laboratory results from ChEMBL document CHEMBL1201862, “PubChem BioAssay data set” (2004).
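These data come from cells grown in 96-well plates and exposed to compound for 48 hours at five concentrations. Abbreviation: GI50, concentration required for 50% inhibition of growth.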 The source made the active and inactive calls. Rule as the data show it: active = GI50 up to about 1.1 µM and inactive = higher.

What was measured:
Assay in all cases: DTP human tumour cell line panel, 48 h
CCRF-CEM = tested on: CCRF-CEM
EKVX = tested on: EKVX
HL-60 = tested on: HL-60
K562 = tested on: K562
NCI-H522 = tested on: NCI-H522
OVCAR-3 = tested on: OVCAR-3
SF-268 = tested on: SF-268
SF-295 = tested on: SF-295
SNB-19 = tested on: SNB-19
SNB-75 = tested on: SNB-75
SW-620 = tested on: SW-620
TK-10 = tested on: TK-10
U-251 = tested on: U-251
UACC-62 = tested on: UACC-62
ACHN = tested on: ACHN
NCI-H460 = tested on: NCI-H460
MDA-MB-231 = tested on: MDA-MB-231
MDA-MB-435 = tested on: MDA-MB-435
PC-3 = tested on: PC-3
Hs-578T = tested on: Hs-578T

Row | Structure (SMILES) | GI50 (CCRF-CEM) | GI50 (EKVX) | GI50 (HL-60) | GI50 (K562) | GI50 (NCI-H522) | GI50 (OVCAR-3) | GI50 (SF-268) | GI50 (SF-295) | GI50 (SNB-19) | GI50 (SNB-75) | GI50 (SW-620) | GI50 (TK-10) | GI50 (U-251) | GI50 (UACC-62) | GI50 (ACHN) | GI50 (NCI-H460) | GI50 (MDA-MB-231) | GI50 (MDA-MB-435) | GI50 (PC-3) | GI50 (Hs-578T)
1 | NC1=NNC(=O)c2nnc3c(C(=O)O)cnn3c2S1 | 10 µM (inactive) | > 100 µM (inactive) | > 100 µM (inactive) | > 100 µM (inactive) | > 100 µM (inactive) | > 100 µM (inactive) | > 100 µM (inactive) | > 100 µM (inactive) | > 100 µM (inactive) | 47.4 µM (inactive) | > 100 µM (inactive) | > 100 µM (inactive) | > 100 µM (inactive) | > 100 µM (inactive) | – | – | – | – | – | –
2 | CCOC(=O)[C@H]1CSC[C@@H](C(=O)OC)N1 | > 100 µM (inactive) | > 100 µM (inactive) | > 100 µM (inactive) | > 100 µM (inactive) | > 100 µM (inactive) | > 100 µM (inactive) | > 100 µM (inactive) | > 100 µM (inactive) | > 100 µM (inactive) | 23.1 µM (inactive) | > 100 µM (inactive) | > 100 µM (inactive) | > 100 µM (inactive) | > 100 µM (inactive) | > 100 µM (inactive) | > 100 µM (inactive) | – | – | – | –
3 | O=C1CCSC2=C1SCc1sccc12 | > 100 µM (inactive) | 93.5 µM (inactive) | > 100 µM (inactive) | > 100 µM (inactive) | > 100 µM (inactive) | > 100 µM (inactive) | > 100 µM (inactive) | > 100 µM (inactive) | > 100 µM (inactive) | 30.5 µM (inactive) | > 100 µM (inactive) | > 100 µM (inactive) | – | > 100 µM (inactive) | – | > 100 µM (inactive) | – | – | – | –
4 | O=S1(=O)c2ccccc2NC(c2ccc3ccccc3c2)CC1c1ccccc1F (centres undefined) | > 100 µM (inactive) | > 100 µM (inactive) | > 100 µM (inactive) | > 100 µM (inactive) | > 100 µM (inactive) | > 100 µM (inactive) | > 100 µM (inactive) | > 100 µM (inactive) | > 100 µM (inactive) | > 100 µM (inactive) | > 100 µM (inactive) | > 100 µM (inactive) | – | > 100 µM (inactive) | > 100 µM (inactive) | > 100 µM (inactive) | – | – | – | –
5 | O=C1CCCc2c(O)ccc(O)c21 | 19.1 µM (inactive) | 85.7 µM (inactive) | 22.8 µM (inactive) | 35.9 µM (inactive) | 12.6 µM (inactive) | > 100 µM (inactive) | 48.5 µM (inactive) | > 100 µM (inactive) | > 100 µM (inactive) | 38.5 µM (inactive) | 61.2 µM (inactive) | > 100 µM (inactive) | > 100 µM (inactive) | > 100 µM (inactive) | > 100 µM (inactive) | > 100 µM (inactive) | – | – | – | –
6 | O=C1NC(O)n2c(=O)[nH]c(=O)n21 (centres undefined) | > 100 µM (inactive) | > 100 µM (inactive) | 71 µM (inactive) | > 100 µM (inactive) | > 100 µM (inactive) | > 100 µM (inactive) | > 100 µM (inactive) | > 100 µM (inactive) | > 100 µM (inactive) | > 100 µM (inactive) | > 100 µM (inactive) | > 100 µM (inactive) | > 100 µM (inactive) | > 100 µM (inactive) | > 100 µM (inactive) | > 100 µM (inactive) | – | – | – | –
7 | C=CN1C(=O)OC[C@@H]1c1ccccc1 | > 100 µM (inactive) | > 100 µM (inactive) | > 100 µM (inactive) | > 100 µM (inactive) | > 100 µM (inactive) | > 100 µM (inactive) | > 100 µM (inactive) | > 100 µM (inactive) | > 100 µM (inactive) | > 100 µM (inactive) | 19.1 µM (inactive) | > 100 µM (inactive) | 96.6 µM (inactive) | > 100 µM (inactive) | > 100 µM (inactive) | > 100 µM (inactive) | – | – | – | –
8 | COC(=O)c1c2c(c(-c3ccccc3)c3c1-c1nc(Cl)ccc1CC3)CCc1ccc(Cl)nc1-2 | > 100 µM (inactive) | 61.4 µM (inactive) | > 100 µM (inactive) | > 100 µM (inactive) | 77.1 µM (inactive) | > 100 µM (inactive) | 78.5 µM (inactive) | 44.6 µM (inactive) | 64 µM (inactive) | 32.3 µM (inactive) | > 100 µM (inactive) | > 100 µM (inactive) | 59.6 µM (inactive) | 71.6 µM (inactive) | > 100 µM (inactive) | 70.6 µM (inactive) | – | – | – | –
9 | O=C1CCc2nc3ncccc3cc2C1 | 30.5 µM (inactive) | > 100 µM (inactive) | – | 29.2 µM (inactive) | 22.2 µM (inactive) | 47.2 µM (inactive) | 51.8 µM (inactive) | > 100 µM (inactive) | > 100 µM (inactive) | > 100 µM (inactive) | 54.8 µM (inactive) | > 100 µM (inactive) | – | – | > 100 µM (inactive) | 99.5 µM (inactive) | > 100 µM (inactive) | 44 µM (inactive) | > 100 µM (inactive) | –
10 | COc1ccc2c(c1)CCc1cnn(C3OC(COC(C)=O)C(OC(C)=O)C(OC(C)=O)C3OC(C)=O)c1-2 (centres undefined) | 15 µM (inactive) | 49 µM (inactive) | > 100 µM (inactive) | 14.5 µM (inactive) | 17 µM (inactive) | 23.9 µM (inactive) | > 100 µM (inactive) | > 100 µM (inactive) | > 100 µM (inactive) | 36.6 µM (inactive) | 18.4 µM (inactive) | > 100 µM (inactive) | 22.5 µM (inactive) | 66.5 µM (inactive) | > 100 µM (inactive) | > 100 µM (inactive) | – | – | – | –
11 | O=C1CCCCC/C1=C\c1cccc([N+](=O)[O-])c1 | 12.2 µM (inactive) | 33.7 µM (inactive) | 17.7 µM (inactive) | 31.9 µM (inactive) | – | 28.8 µM (inactive) | 18.5 µM (inactive) | 23.2 µM (inactive) | 38.6 µM (inactive) | 38.2 µM (inactive) | 34.5 µM (inactive) | 33.7 µM (inactive) | 27.4 µM (inactive) | 22.5 µM (inactive) | 33.3 µM (inactive) | 30.1 µM (inactive) | 23.8 µM (inactive) | 32.7 µM (inactive) | 34.3 µM (inactive) | –
12 | COc1ccc(C(=O)C(c2ccc(OC)cc2)C2(O)C(=O)Nc3ccc([N+](=O)[O-])cc32)cc1 (centres undefined) | > 100 µM (inactive) | > 100 µM (inactive) | 70.8 µM (inactive) | > 100 µM (inactive) | > 100 µM (inactive) | > 100 µM (inactive) | > 100 µM (inactive) | > 100 µM (inactive) | > 100 µM (inactive) | 32.3 µM (inactive) | > 100 µM (inactive) | > 100 µM (inactive) | > 100 µM (inactive) | > 100 µM (inactive) | > 100 µM (inactive) | > 100 µM (inactive) | – | – | – | –
13 | O=C(NN1C(=O)C=CC1=O)c1ccccc1Nc1ccccc1C(=O)NN1C(=O)C=CC1=O | > 100 µM (inactive) | > 100 µM (inactive) | > 100 µM (inactive) | > 100 µM (inactive) | > 100 µM (inactive) | > 100 µM (inactive) | > 100 µM (inactive) | > 100 µM (inactive) | > 100 µM (inactive) | > 100 µM (inactive) | > 100 µM (inactive) | > 100 µM (inactive) | > 100 µM (inactive) | > 100 µM (inactive) | > 100 µM (inactive) | > 100 µM (inactive) | > 100 µM (inactive) | > 100 µM (inactive) | > 100 µM (inactive) | –
14 | CC(N)Cc1ccc(Cl)c(Cl)c1 (centres undefined) | 28.2 µM (inactive) | 41.5 µM (inactive) | 18.6 µM (inactive) | 21.7 µM (inactive) | 29.6 µM (inactive) | 69.3 µM (inactive) | 71.8 µM (inactive) | > 52.2 µM (inactive) | > 96.6 µM (inactive) | 23.3 µM (inactive) | 22 µM (inactive) | 22.6 µM (inactive) | 42.7 µM (inactive) | 22.8 µM (inactive) | 26.8 µM (inactive) | 30.1 µM (inactive) | – | – | – | –
15 | O=C(CP(=O)(O)O)c1cccs1 | > 100 µM (inactive) | > 100 µM (inactive) | > 100 µM (inactive) | > 100 µM (inactive) | > 100 µM (inactive) | > 100 µM (inactive) | > 100 µM (inactive) | > 100 µM (inactive) | > 100 µM (inactive) | > 100 µM (inactive) | > 100 µM (inactive) | > 100 µM (inactive) | > 100 µM (inactive) | > 100 µM (inactive) | > 100 µM (inactive) | > 100 µM (inactive) | – | – | – | –
16 | CN(C)NC(=S)NC12CC3CC(CC(C3)C1)C2 | > 100 µM (inactive) | > 100 µM (inactive) | > 100 µM (inactive) | > 100 µM (inactive) | > 100 µM (inactive) | > 100 µM (inactive) | > 100 µM (inactive) | > 100 µM (inactive) | > 100 µM (inactive) | > 100 µM (inactive) | > 100 µM (inactive) | > 100 µM (inactive) | > 100 µM (inactive) | > 100 µM (inactive) | > 100 µM (inactive) | > 100 µM (inactive) | – | – | – | –
17 | O=C1N=C2SC(=S)N=C(S)N2NC12c1ccccc1-c1ccccc12 | 7.78 µM (inactive) | 3.67 µM (inactive) | > 10 µM (inactive) | 8.17 µM (inactive) | – | – | > 10 µM (inactive) | – | – | > 10 µM (inactive) | > 10 µM (inactive) | > 10 µM (inactive) | > 10 µM (inactive) | > 10 µM (inactive) | – | 0.736 µM (active) | > 10 µM (inactive) | – | – | > 10 µM (inactive)
